Key:
BTK = molecular target: T1, BTK (Homo sapiens, UniProt Q06187); test: BTK kinase assay (HotSpot, 33P ATP); type: biochemical; settings: for BTK @ 0.1 μM (% Inh): 0.1 μM compound; for BTK @ 0.1 μM (% Inh) / BTK @ 1 μM (% Inh) / BTK @ 0.01 μM (% Inh): 10 μM ATP; for BTK @ 1 μM (% Inh): 1 μM compound; for BTK @ 0.01 μM (% Inh): 0.01 μM compound; for IC50: 10 dose IC50, 10 μM ATP
T1 construct: purchased Reaction Biology Corporation
Experimental: (§1) Compounds of the invention were profiled in a 10 dose IC50 panel against BTK and PI3Kδ, both provided by Reaction Biology Corporation.
BTK assay: In vitro profiling protein kinases was performed using the “HotSpot” assay platform. Briefly, specific kinase/substrate pairs along with required cofactors were prepared in reaction buffer. Compounds were prepared as 10 mM stock solutions in DMSO. Compounds were delivered into the reaction, followed 15-20 minutes later by addition of a mixture of ATP (Sigma, St. Louis Mo.) and ^33P ATP (Perkin Elmer, Waltham Mass.) to a final concentration of 10 μM. […] IC50 values and curve fits were obtained using Prism (GraphPad Software). Buffer Conditions: 20 mM Hepes (pH 7.5), 10 mM MgCl2, 1 mM EGTA, 0.02% Brij35, 0.02 mg/mL BSA, 0.1 mM Na3VO4, 2 mM DTT, 1% DMSO.

PI3Kδ = molecular target: T2, PI3Kδ (Homo sapiens, UniProt O00329); test: PI3Kδ kinase assay (HTRF, PIP3 detection); type: biochemical; settings: for PI3Kδ @ 0.1 μM (% Inh): 0.1 μM compound; for PI3Kδ @ 0.1 μM (% Inh) / PI3Kδ @ 1 μM (% Inh) / PI3Kδ @ 0.01 μM (% Inh): 10 μM ATP; for PI3Kδ @ 1 μM (% Inh): 1 μM compound; for PI3Kδ @ 0.01 μM (% Inh): 0.01 μM compound; for IC50: 10 dose IC50, 10 μM ATP
T2 construct: purchased Reaction Biology Corporation
Text: as §1
PI3Kδ assay: The PIP3 product is detected by displacement of biotin-PIP3 from an energy transfer complex consisting of Europium labeled anti-GST monoclonal antibody, a GST-tagged pleckstrin homology (PH) domain, biotinylated PIP3 and Streptavidin-Allophycocyanin (APC). […] The PIP3 product formed by PI 3-Kinase(h) activity displaces biotin-PIP3 from the complex resulting in a loss of energy transfer and thus a decrease in signal. This is a 3-step reaction: First, the kinase reaction with PIP2 substrate is carried out in the presence of ATP (10 μM), and the reaction is quenched with stop Solution, and then finally detect by adding Detection Mixture followed by incubation (10 min). Reaction procedure: 1) Prepare substrate in freshly prepared Reaction Buffer. 2) Deliver kinase into the substrate solution and gently mix. 3) Deliver compounds in 100% DMSO (1 μM) into the kinase reaction mixture by Acoustic technology (Echo550; nanoliter range), incubate for 10 min at RT. 4) Deliver ATP into the reaction mixture to initiate the reaction. 5) Incubate for 30 min at 30° C. 6) Quench the reaction with Stop Solution. 7) Add Detection Mixture, and incubate for overnight. […] The emission ratio is converted into μM PIP3 production based on PIP3 standard curves. The nonlinear regression to obtain the standard curve and IC50 values are performed using Graphpad Prism software. Assay Buffer: HEPES 50 mM (pH7.0), NaN3 0.02%, BSA 0.01%, Orthovanadate 0.1 mM, 1% DMSO. Detection buffer: HEPES 10 mM (pH7.0), BSA 0.02%, KF 0.16 M, EDTA 4 mM. Substrate: 10 μM PIP2 substrate (PI(4,5)P2).

T2 sequence (O00329 whole entry): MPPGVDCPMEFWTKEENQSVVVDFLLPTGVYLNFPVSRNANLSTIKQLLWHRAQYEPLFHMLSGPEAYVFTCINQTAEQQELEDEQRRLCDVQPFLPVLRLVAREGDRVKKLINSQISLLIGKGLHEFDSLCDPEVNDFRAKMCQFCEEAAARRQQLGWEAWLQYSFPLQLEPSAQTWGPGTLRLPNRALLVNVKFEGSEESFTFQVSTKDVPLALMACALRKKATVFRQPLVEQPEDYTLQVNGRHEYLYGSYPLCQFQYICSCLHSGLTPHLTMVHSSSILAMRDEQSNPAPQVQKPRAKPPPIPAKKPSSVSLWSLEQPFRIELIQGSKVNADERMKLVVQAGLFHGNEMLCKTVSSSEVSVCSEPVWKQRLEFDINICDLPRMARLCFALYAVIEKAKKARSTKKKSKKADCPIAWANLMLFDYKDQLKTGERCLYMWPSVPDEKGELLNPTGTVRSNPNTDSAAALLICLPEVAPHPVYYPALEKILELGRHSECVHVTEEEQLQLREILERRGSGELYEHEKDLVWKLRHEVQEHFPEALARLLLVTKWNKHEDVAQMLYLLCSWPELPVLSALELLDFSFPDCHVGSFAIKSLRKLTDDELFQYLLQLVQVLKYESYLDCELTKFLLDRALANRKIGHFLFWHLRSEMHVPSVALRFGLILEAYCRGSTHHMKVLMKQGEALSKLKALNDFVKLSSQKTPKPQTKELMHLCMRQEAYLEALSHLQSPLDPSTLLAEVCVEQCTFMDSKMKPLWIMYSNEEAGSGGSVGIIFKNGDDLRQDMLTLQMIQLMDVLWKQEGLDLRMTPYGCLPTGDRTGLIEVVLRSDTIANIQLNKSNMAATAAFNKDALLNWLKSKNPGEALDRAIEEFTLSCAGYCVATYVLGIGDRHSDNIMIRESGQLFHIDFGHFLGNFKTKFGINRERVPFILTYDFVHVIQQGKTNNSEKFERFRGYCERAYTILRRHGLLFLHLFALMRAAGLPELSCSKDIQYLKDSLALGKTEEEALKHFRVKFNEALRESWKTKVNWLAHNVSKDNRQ
T2 sequence (P27986 whole entry partner): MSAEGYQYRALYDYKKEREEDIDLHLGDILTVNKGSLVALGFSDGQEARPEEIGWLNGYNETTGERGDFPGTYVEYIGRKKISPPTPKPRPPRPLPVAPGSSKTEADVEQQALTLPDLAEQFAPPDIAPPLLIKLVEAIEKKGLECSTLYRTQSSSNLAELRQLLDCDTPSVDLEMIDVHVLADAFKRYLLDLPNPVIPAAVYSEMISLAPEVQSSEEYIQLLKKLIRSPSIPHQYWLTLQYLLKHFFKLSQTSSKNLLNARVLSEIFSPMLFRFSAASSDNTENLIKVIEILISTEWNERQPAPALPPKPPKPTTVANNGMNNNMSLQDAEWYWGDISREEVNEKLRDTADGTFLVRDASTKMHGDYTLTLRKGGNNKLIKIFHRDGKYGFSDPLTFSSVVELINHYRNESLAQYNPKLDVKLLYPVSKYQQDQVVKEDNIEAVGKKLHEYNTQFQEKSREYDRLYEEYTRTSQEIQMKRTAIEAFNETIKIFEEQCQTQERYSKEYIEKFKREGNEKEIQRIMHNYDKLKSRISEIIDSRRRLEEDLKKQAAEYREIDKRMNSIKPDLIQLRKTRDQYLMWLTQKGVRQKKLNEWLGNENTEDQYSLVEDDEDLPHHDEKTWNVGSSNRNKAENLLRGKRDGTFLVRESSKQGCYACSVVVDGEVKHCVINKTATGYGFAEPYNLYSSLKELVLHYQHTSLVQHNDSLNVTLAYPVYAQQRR
T1 sequence (Q06187 whole entry): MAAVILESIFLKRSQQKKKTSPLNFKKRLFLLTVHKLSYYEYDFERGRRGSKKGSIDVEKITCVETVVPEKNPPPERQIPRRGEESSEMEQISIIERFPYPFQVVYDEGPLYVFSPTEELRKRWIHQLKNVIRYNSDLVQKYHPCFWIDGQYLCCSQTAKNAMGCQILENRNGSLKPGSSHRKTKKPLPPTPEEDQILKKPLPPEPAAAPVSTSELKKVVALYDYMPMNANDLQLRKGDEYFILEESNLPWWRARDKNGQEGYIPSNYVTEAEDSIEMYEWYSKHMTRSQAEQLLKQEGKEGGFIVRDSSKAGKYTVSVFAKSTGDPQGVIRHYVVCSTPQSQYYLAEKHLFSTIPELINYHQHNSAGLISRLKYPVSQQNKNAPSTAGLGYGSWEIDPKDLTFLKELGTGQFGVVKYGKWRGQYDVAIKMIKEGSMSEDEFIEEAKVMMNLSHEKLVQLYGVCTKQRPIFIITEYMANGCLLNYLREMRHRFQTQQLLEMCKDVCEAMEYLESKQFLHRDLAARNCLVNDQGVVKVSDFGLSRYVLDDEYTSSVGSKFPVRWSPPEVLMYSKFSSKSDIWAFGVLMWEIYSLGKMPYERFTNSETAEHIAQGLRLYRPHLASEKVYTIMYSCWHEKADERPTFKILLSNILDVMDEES

Row | SMILES | BTK @ 0.1 μM (% Inh) (BTK) | BTK @ 1 μM (% Inh) (BTK) | PI3Kδ @ 0.1 μM (% Inh) (PI3Kδ) | PI3Kδ @ 1 μM (% Inh) (PI3Kδ) | BTK @ 0.01 μM (% Inh) (BTK) | PI3Kδ @ 0.01 μM (% Inh) (PI3Kδ) | IC50 (BTK) | IC50 (PI3Kδ)
1 | CCOc1c(Cl)cc(-c2nn(C3Cc4ccccc4C3)c3ncnc(N)c23)cc1OC [Compound No. 77, 3-(3-chloro-4-ethoxy-5-methoxyphenyl)-1-(2,3-dihydro-1H-inden-2-yl)-1H-pyrazolo[3,4-d]pyrimidin-4-amine] | 24.85 % Inh | 76.64 % Inh | −1.66 % Inh | 16.5 % Inh |  |  |  | 
2 | Nc1cc(-c2nn(C3Cc4ccccc4C3)c3ncnc(N)c23)ccc1F [Compound No. 87, 3-(3-amino-4-fluorophenyl)-1-(2,3-dihydro-1H-inden-2-yl)-1H-pyrazolo[3,4-d]pyrimidin-4-amine] | 78.95 % Inh |  | 8.16 % Inh |  | 34.28 % Inh | 13.47 % Inh |  | 
3 | Nc1ncnc2c1c(-c1cc(F)c(F)c(F)c1)nn2C1Cc2ccccc2C1 [Compound No. 86, 1-(2,3-dihydro-1H-inden-2-yl)-3-(3,4,5-trifluorophenyl)-1H-pyrazolo[3,4-d]pyrimidin-4-amine] | 21.34 % Inh |  | 20.84 % Inh |  | 8.08 % Inh | 17.21 % Inh |  | 
4 | Nc1ncnc2c1c(-c1ccc3[nH]cnc3c1)nn2C1Cc2ccccc2C1 [Compound No. 47, 3-(1H-1,3-benzodiazol-5-yl)-1-(2,3-dihydro-1H-inden-2-yl)-1H-pyrazolo[3,4-d]pyrimidin-4-amine] | 9.61 % Inh | 48.47 % Inh | 78.41 % Inh | 100.0 % Inh |  |  |  | 
5 | Cc1ccc(-c2nn(C3Cc4ccccc4C3)c3ncnc(N)c23)cc1N [Compound No. 46, 3-(3-amino-4-methylphenyl)-1-(2,3-dihydro-1H-inden-2-yl)-1H-pyrazolo[3,4-d]pyrimidin-4-amine] | 85.71 % Inh | 96.3 % Inh | 30.55 % Inh | 67.34 % Inh |  |  | 21.2 nM | 1290 nM
6 | Nc1ncnc2c1c(-c1ccc3c(c1)OC(F)(F)O3)nn2C1Cc2ccccc2C1 [Compound No. 75, 3-(2,2-difluoro-2H-1,3-benzodioxol-5-yl)-1-(2,3-dihydro-1H-inden-2-yl)-1H-pyrazolo[3,4-d]pyrimidin-4-amine] | 10.92 % Inh | 29.0 % Inh | −0.46 % Inh | 15.57 % Inh |  |  |  | 
7 | COc1c(Cl)ccc(-c2nn(C3Cc4ccccc4C3)c3ncnc(N)c23)c1Cl [Compound No. 95, 3-(2,4-dichloro-3-methoxyphenyl)-1-(2,3-dihydro-1H-inden-2-yl)-1H-pyrazolo[3,4-d]pyrimidin-4-amine] | 11.01 % Inh |  | 25.54 % Inh |  | 7 % Inh | 3.09 % Inh |  | 

More lines, now with the values ahead:

Row | BTK @ 0.1 μM (% Inh) (BTK) | BTK @ 1 μM (% Inh) (BTK) | PI3Kδ @ 0.1 μM (% Inh) (PI3Kδ) | PI3Kδ @ 1 μM (% Inh) (PI3Kδ) | BTK @ 0.01 μM (% Inh) (BTK) | PI3Kδ @ 0.01 μM (% Inh) (PI3Kδ) | IC50 (BTK) | IC50 (PI3Kδ) | SMILES
8 | 13.54 % Inh |  | 4.7 % Inh |  |  |  |  |  | NC(=O)c1cccc(-c2nn(C3CCc4ccccc4C3)c3ncnc(N)c23)c1 (stereo not shown) [compound 27, 3-(4-amino-1-tetralin-2-yl-pyrazolo[3,4-d]pyrimidin-3-yl)benzamide]
9 | 15.85 % Inh |  | 44.86 % Inh |  |  |  |  |  | Nc1ncnc2c1c(-c1ccc3cn[nH]c3c1)nn2C1CCc2ccccc2C1 (racemic) [compound 9, 3-(1H-indazol-6-yl)-1-(1,2,3,4-tetrahydronaphthalen-2-yl)-1H-pyrazolo[3,4-d]pyrimidin-4-amine]
10 | 41.05 % Inh | 82.76 % Inh | 73.20 % Inh | 98.33 % Inh |  |  | 422 nM | 65.7 nM | Nc1ncnc2c1c(-c1cc(O)cc(F)c1)nn2C1Cc2cc(F)ccc2C1=O (stereo not shown) [compound 51, 2-[4-amino-3-(3-fluoro-5-hydroxyphenyl)-1H-pyrazolo[3,4-d]pyrimidin-1-yl]-5-fluoro-2,3-dihydro-1H-inden-1-one]

Source: patent US20210317140A1, “Heterocyclic Compounds and Methods of Use” (MEDIVATION TECHNOLOGIES, INC, priority 2013, published 2021)
